Experimental data from ChEMBL document CHEMBL4819065, “Gelstriamine A, a Triamino Monoterpene Indole Alkaloid with a Caged 6/5/7/6/6/5 Scaffold and Analgesic Alkaloids from Gelsemium elegans Stems” (2021).
Activity calls are given as the source filed them. No cut-off for these calls is given here.

These molecules were tested on Mus musculus (assay: Analgesic activity in Kunming mouse assessed as inhibition of acetic acid-induced writhing at 0.04 mg/kg, ip pretreated with compound for 30 mins followed by acetic acid challenge and measured after 30 mins). Conditions: 1 h, time 60 min.
Format: functional

| Structure (SMILES) | inhibition in vivo at 0.04 mg/kg |
| --- | --- |
| C/C=C1\C[N@+](C)([O-])[C@H]2C[C@@]3(C(=O)Nc4ccccc43)[C@H]3C[C@@H]1[C@@H]2CO3 | 67.6% |

What follows are molecules tested on Mus musculus (assay: Analgesic activity in Kunming mouse assessed as inhibition of acetic acid-induced writhing at 5 mg/kg, ip pretreated with compound for 30 mins followed by acetic acid challenge and measured after 30 mins). Conditions: time 60.0 min.
Format: functional, organism-based

| Structure (SMILES) | Activity |
| --- | --- |
| CC[C@@]12OC(=O)N[C@@H]1N(C)[C@H]1C[C@@]3(C(=O)N(OC)c4ccccc43)[C@H]3C[C@@H]2[C@@H]1CO3 | Active |
| C/C=C1\CN(C)[C@H]2C[C@@]3(C(=O)N(OC)c4ccccc43)[C@H]3C[C@@H]1[C@@H]2CO3 | Active |
| C/C=C1\CN2[C@H]3C[C@@H]1[C@H](CO)[C@@H]2Cc1c3[nH]c2ccccc12 | Active |
| C/C=C1\C[N@+](C)([O-])[C@H]2C[C@@]3(C(=O)Nc4ccccc43)[C@H]3C[C@@H]1[C@@H]2CO3 | Active |
| C=C[C@@]12CN[C@@H]3C[C@]14C(=Nc1ccccc14)[C@H]1C[C@@H]2[C@@H]3CO1 | Active |
| C/C=C1\CN(C)[C@H]2C[C@@]3(C(=O)Nc4ccccc43)[C@H]3C[C@@H]1[C@@H]2CO3 | Active |
| C/C=C1\C[N@+](C)([O-])[C@H]2C[C@@]3(C(=O)N(OC)c4cc(O)ccc43)[C@H]3C[C@@H]1[C@@H]2CO3 | Active |
| C/C=C1\CN2[C@H]3C[C@@H]1[C@@H](CO)[C@@H]2Cc1c3[nH]c2ccccc12 | Active |
| C/C=C1\CN[C@H]2C[C@@]3(C(=O)N(OC)c4cc(OC)ccc43)[C@H]3C[C@@H]1[C@@H]2CO3 | Active |
| COc1ccc2c(c1)N(OC)C(=O)[C@@]21C[C@@H]2N[C@](CO)([C@@H](C)O)[C@@H]3C[C@H]1OC[C@H]23 | Active |
| c1ccc2[nH]c(-c3cc4c(cn3)CCCC4)cc2c1 | Active |
| CON1C(=O)[C@@]2(C[C@@H]3N[C@](CO)([C@@H](C)O)[C@@H]4C[C@H]2OC[C@H]34)c2ccccc21 | Active |
| C/C=C1\C[N@@+]2([O-])[C@H]3C[C@@H]1[C@@H](CO)[C@@H]2Cc1c3[nH]c2ccccc12 | Active |
| C/C=C1\CN(C)[C@H]2C[C@@]3(C(=O)N(OC)c4cc(O)ccc43)[C@H]3C[C@@H]1[C@@H]2CO3 | Active |
| CC[C@@]1(CO)N[C@H]2C[C@@]3(C(=O)N(OC)c4ccccc43)[C@H]3C[C@@H]1[C@@H]2CO3 | Active |
| C/C=C1\C[N@+](C)([O-])[C@H]2C[C@@]3(C(=O)N(OC)c4ccccc43)[C@H]3C[C@@H]1[C@@H]2CO3 | Active |
| C=CC12CN[C@@H]3[C@H]4CO[C@H](CC41)[C@]1(C(=O)Nc4ccccc41)[C@@H]32 | Active |

What follows are molecules tested on Mus musculus (assay: Analgesic activity in Kunming mouse assessed as inhibition of acetic acid-induced writhing at 1 mg/kg, ip pretreated with compound for 30 mins followed by acetic acid challenge and measured after 30 mins). Conditions: 1 h, time 60 min.
Format: functional

| Structure (SMILES) | inhibition in vivo at 1 mg/kg |
| --- | --- |
| CC[C@@]12OC(=O)N[C@@H]1N(C)[C@H]1C[C@@]3(C(=O)N(OC)c4ccccc43)[C@H]3C[C@@H]2[C@@H]1CO3 | 64.7% |

What follows are molecules tested on Mus musculus (assay: Analgesic activity in Kunming mouse assessed as inhibition of acetic acid-induced writhing at 0.2 mg/kg, ip pretreated with compound for 30 mins followed by acetic acid challenge and measured after 30 mins). Conditions: 1 h, time 60 min.
Format: functional

| Structure (SMILES) | inhibition in vivo at 0.2 mg/kg |
| --- | --- |
| C/C=C1\C[N@+](C)([O-])[C@H]2C[C@@]3(C(=O)Nc4ccccc43)[C@H]3C[C@@H]1[C@@H]2CO3 | 76.1% |
